Measurements reported in US20130345182A1, “STABLE COMPOSITION COMPRISING CHOLESTEROL-LOWERING AGENTS, […] AGENTS AND […] AGENTS” (Silanes Laboratories, priority 2010, published 2013).

Legend:
clinical = settings: human
[1] = Determination of drugs content stability under extreme storage conditions; assay type: physicochemical
Procedure: The compositions from Example 1 were subjected to extreme storage conditions.
These conditions were maintained for a month, as follows: temperature 40° C. and 75% relative humidity (RH) and at temperature of 60° C. and 85% RH.
Then, the determination of the contents of each of the drugs was performed.

Long-term stability test = assay type: physicochemical
Procedure: The compositions of the present invention can be formulated into tablets which are packed in Aluminum-Aluminum blisters and subjected to stability studies according to ICH international guidelines (International Conference of Harmonization, Guideline for Industry, Stability Testing of New Drug Substances and Products. ICH Q1A (R2) February 2003).
Long-term stability studies were conducted on a batch from the composition of the present invention manufactured in accordance with that described in Example 1 but with the addition of coloring agent; these studies were conducted in selected conditions of temperature and humidity, which were 30° C. and 75% RH, and a temperature of 25° C. and 60% RH, showing that the pharmaceutical composition is stable according to the results exemplified in Table 3 up to 9 months, although the study was conducted under the regulatory guidelines for a longer period.

[2] = Dissolution profile of tablets; assay type: physicochemical
Excerpt: Assessment of the composition of the present invention formulated into tablets was made, as described in Example 1 to determine their dissolution profiles, according to methods widely known in the industry, in order to evaluate the release of drugs.

[3] = cited from earlier work
[4] = patients with type 2 diabetes mellitus and proteinuria; cited from earlier work
[5] = 0 months, 30° C./75% RH or 25° C./60% RH (not said which)

Row | SMILES | Drug content ([1]; 1 Month 40° C./75% RH) [%] | Drug content ([1]; 1 Month 60° C./85% RH) [%] | Drug content ([1]; Initial) [%] | Dissolution (Long-term stability test; 0 months) [%] | Content (Long-term stability test; [5]) [%] | Content (Long-term stability test; 1 month) [%] | Dissolution (Long-term stability test; 1 month) [%] | Content (Long-term stability test; 3 months) [%] | Dissolution (Long-term stability test; 3 months) [%] | Content (Long-term stability test; 6 months) [%] | Dissolution (Long-term stability test; 6 months) [%] | Content (Long-term stability test; 9 months) [%] | Dissolution (Long-term stability test; 9 months) [%] | Average of % dissolved ([2]; 10 minutes) [%] | Average of % dissolved ([2]; 20 minutes) [%] | Average of % dissolved ([2]; 30 minutes) [%] | Average of % dissolved ([2]; 40 minutes) [%] | Average of % dissolved ([2]; 50 minutes) [%] | Average of % dissolved ([2]; 60 minutes) [%] | concentration at 0 h (clinical; in vivo) [µg/mL] | further results
1 | O=C(O)c1ccccc1O [Salicylic acid] | – | – | – | – | – | – | – | – | – | – | – | – | – | – | – | – | – | – | – | – | concentration at 0 h (clinical; plasma, oral): 0 µg/mL; concentration at 0.17 h (clinical; plasma, oral): 0.00109 µg/mL; concentration at 0.33 h (clinical; plasma, oral): 0.00397 µg/mL; concentration at 0.5 h (clinical; plasma, oral): 0.00878 µg/mL; concentration at 0.75 h (clinical; plasma, oral): 0.0148 µg/mL; concentration at 1 h (clinical; plasma, oral): 0.0211 µg/mL; concentration at 2 h (clinical; plasma, oral): 0.0288 µg/mL; concentration at 2.5 h (clinical; plasma, oral): 0.0365 µg/mL; concentration at 3 h (clinical; plasma, oral): 0.0433 µg/mL; concentration at 4 h (clinical; plasma, oral): 0.0492 µg/mL; concentration at 6 h (clinical; plasma, oral): 0.0502 µg/mL; concentration at 7 h (clinical; plasma, oral): 0.0454 µg/mL; concentration at 8 h (clinical; plasma, oral): 0.0251 µg/mL; concentration at 10 h (clinical; plasma, oral): 0.0125 µg/mL; concentration at 12 h (clinical; plasma, oral): 0.00421 µg/mL; concentration at 24 h (clinical; plasma, oral): 0.00116 µg/mL
2 | CC(=O)Oc1ccccc1C(=O)O [Acetylsalicylic acid, acetylsalicylic acid] | 96.45 | 96.05 | 94.63 | 88.75 | 98.70 | 101.00 | 78.38 | 98.54 | 83.57 | 98.67 | 87.60 | 95.14 | 81.66 | 12 | 34 | 56 | 73 | 84 | 88 | – | –
3 | CC[C@H](C)C(=O)O[C@H]1C[C@H](O)C=C2C=C[C@H](C)[C@H](CC[C@@H](O)C[C@@H](O)CC(=O)O)[C@H]21 [Pravastatin sodium, pravastatin sodium] | 98.72 | 98.23 | 99.76 | 99.79 | 98.89 | 98.04 | 94.77 | 95.83 | 98.09 | 98.77 | 95.97 | 99.97 | 93.37 | 61 | 104 | 105 | 106 | 107 | 108 | 0 | Incidence of type 2 diabetes mellitus, lower than in placebo group ([3]; patients administered pravastatin vs placebo): 30%; Reduction of incidence of cerebral thrombosis ([3]; patients): ≤ 20%; concentration at 0.17 h (clinical; in vivo): 0.0028 µg/mL; concentration at 0.33 h (clinical; in vivo): 0.0249 µg/mL; concentration at 0.5 h (clinical; in vivo): 0.0726 µg/mL; concentration at 0.75 h (clinical; in vivo): 0.113 µg/mL; concentration at 1 h (clinical; in vivo): 0.11 µg/mL; concentration at 2 h (clinical; in vivo): 0.077 µg/mL; concentration at 2.5 h (clinical; in vivo): 0.058 µg/mL; concentration at 3 h (clinical; in vivo): 0.0425 µg/mL; concentration at 4 h (clinical; in vivo): 0.0258 µg/mL; concentration at 6 h (clinical; in vivo): 0.0163 µg/mL; concentration at 7 h (clinical; in vivo): 0.00973 µg/mL; concentration at 8 h (clinical; in vivo): 0.0133 µg/mL; concentration at 10 h (clinical; in vivo): 0.00653 µg/mL; concentration at 12 h (clinical; in vivo): 0.00171 µg/mL; concentration at 24 h (clinical; in vivo): 0.00127 µg/mL
4 | CCCCc1nc(Cl)c(CO)n1Cc1ccc(-c2ccccc2-c2nn[nH]n2)cc1 [Losartan potassium, losartan potassium] | 96.31 | 96.64 | 95.88 | 103.01 | 100.32 | 99.24 | 95.28 | 98.50 | 96.38 | 99.85 | 92.77 | 95.33 | 91.66 | 60 | 100 | 102 | 102 | 103 | 104 | 0 | Progression of renal disease [4]: delays the progression of renal disease; concentration at 0.17 h (clinical; in vivo): 0.0397 µg/mL; concentration at 0.33 h (clinical; in vivo): 0.137 µg/mL; concentration at 0.5 h (clinical; in vivo): 0.191 µg/mL; concentration at 0.75 h (clinical; in vivo): 0.176 µg/mL; concentration at 1 h (clinical; in vivo): 0.14 µg/mL; concentration at 2 h (clinical; in vivo): 0.113 µg/mL; concentration at 2.5 h (clinical; in vivo): 0.0963 µg/mL; concentration at 3 h (clinical; in vivo): 0.0815 µg/mL; concentration at 4 h (clinical; in vivo): 0.0575 µg/mL; concentration at 6 h (clinical; in vivo): 0.0387 µg/mL; concentration at 7 h (clinical; in vivo): 0.0218 µg/mL; concentration at 8 h (clinical; in vivo): 0.0124 µg/mL; concentration at 10 h (clinical; in vivo): 0.00601 µg/mL; concentration at 12 h (clinical; in vivo): 0.00306 µg/mL
